Laboratory results: patent publication US4292317A, “1,4-Dihydro-quinoline-3-carboxylic acid derivatives, process for their preparation and compositions containing them” (Laboratorie Roger Bellon, priority 1977, dated 1981)
Converted amounts (≈) assume the structure as drawn.

Key:
Assay type in all cases: cell-based
Salm. typhi 0901 = experiment: microbe, parasite or virus in culture; details: Salmonella enterica, 18 h; Table 2; Salm. typhi 0901 (Gram negative)
Experimental: (§1) After sterilisation at 120° C., the pH was 6.8.
(§2) The minimum inhibitory concentrations (M.I.C.) were determined by dilution of the test compounds in this mixture, the concentration ranging from 0.05 to 100 μg/cm^3 in a geometric progression with a factor of 2.
(§3) The inoculation of the dishes was carried out by means of a multiple inoculator with 10^-3 dilutions of 18 hour old broth cultures.
(§4) The dishes were placed in an oven at 37° C. and the readings were taken afer an incubation time of 18 hours. The M.I.C. was taken as the lowest concentration which inhibited a culture.

Staph. 9.144 = experiment: M.I.C. in vitro, nutrient agar dilution; details: 18 h; Table 2; Staph. 9.144 (Gram positive); read-out: M.I.C.
Experimental: as §1, §2, §3, §4

Serratia = experiment: M.I.C. in vitro, nutrient agar dilution; details: 18 h, Table 2, Berratia (Gram negative), read-out: M.I.C.
Experimental: as §1, §2, §3, §4

Klebs. pneum. 10.031 = experiment: M.I.C. in vitro, nutrient agar dilution; details: 18 h; Table 2; Klebs. pneum. 10.031 (Gram negative); read-out: M.I.C.
Experimental: as §1, §2, §3, §4

Pr. vulgaris 12-53 = experiment: M.I.C. in vitro, nutrient agar dilution; details: Proteus vulgaris, 1253, 18 h; Table 2; Pr. vulgaris 12-53 (Gram negative); read-out: M.I.C.
Experimental: as §1, §2, §3, §4

Strepto D.M. 19 = experiment: M.I.C. in vitro, nutrient agar dilution; details: 18 h; Table 2; Strepto D.M. 19 (Gram positive); read-out: M.I.C.
Experimental: as §1, §2, §3, §4

Providentia 0223 = experiment: M.I.C. in vitro, nutrient agar dilution; details: 18 h; Table 2; Providentia 0223 (Gram negative); read-out: M.I.C.
Experimental: as §1, §2, §3, §4

Strepto A 561 = experiment: M.I.C. in vitro, nutrient agar dilution; details: 18 h; Table 2; Strepto A 561 (Gram positive)
Experimental: as §1, §2, §3, §4

Staph. 209 P = experiment: M.I.C. in vitro, nutrient agar dilution; details: 18 h; Table 2; Staph. 209 P (Gram positive); read-out: M.I.C.
Experimental: as §1, §2, §3, §4

Ps. aeruginosa A.22 = experiment: M.I.C. in vitro, nutrient agar dilution; details: Pseudomonas aeruginosa, 18 h; Table 2; Ps. aeruginosa A.22 (Gram negative); read-out: M.I.C.
Experimental: as §1, §2, §3, §4

Ps. aeruginosa 72.345 = experiment: M.I.C. in vitro, nutrient agar dilution; details: Pseudomonas aeruginosa, 18 h; Table 2; Ps. aeruginosa 72.345 (Gram negative); read-out: M.I.C.
Experimental: as §1, §2, §3, §4

S. oranienburg 1066 = experiment: M.I.C. in vitro, nutrient agar dilution; details: Salmonella enterica, 18 h; Table 2; S. oranienburg 1066 (Gram negative); read-out: M.I.C.
Experimental: as §1, §2, §3, §4

Arizona 6.211 = experiment: M.I.C. in vitro, nutrient agar dilution; details: 18 h; Table 2; Arizona 6.211 (Gram negative); read-out: M.I.C.
Experimental: as §1, §2, §3, §4

Pr. mirabilis Nig = experiment: M.I.C. in vitro, nutrient agar dilution; details: Proteus mirabilis, 18 h; Table 2; Pr. mirabilis Nig (Gram negative); read-out: M.I.C.
Experimental: as §1, §2, §3, §4

Esch. coli 111 B4 = experiment: M.I.C. in vitro, nutrient agar dilution; details: Escherichia coli, 18 h; Table 2; Esch. coli 111 B4 (Gram negative)
Experimental: as §1, §2, §3, §4

Esch. coli 95 I.S.M. = experiment: M.I.C. in vitro, nutrient agar dilution; details: Escherichia coli, 18 h; Table 2; Esch. coli 95 I.S.M. (Gram negative); read-out: M.I.C.
Experimental: as §1, §2, §3, §4

Sh. sonnei I.P.S. = experiment: M.I.C. in vitro, nutrient agar dilution; details: Shigella sonnei, 18 h; Table 2; Sh. sonnei I.P.S. (Gram negative); read-out: M.I.C.
Experimental: as §1, §2, §3, §4

Bord. bronchis. 4.617 = experiment: M.I.C. in vitro, nutrient agar dilution; details: 18 h; Table 2; Bord. bronchis. 4.617 (Gram negative); read-out: M.I.C.
Experimental: as §1, §2, §3, §4

Pr. morganii A.236 = experiment: M.I.C. in vitro, nutrient agar dilution; details: Morganella morganii, 18 h; Table 2; Pr. morganii A.236 (Gram negative); read-out: M.I.C.
Experimental: as §1, §2, §3, §4

S. enteritidis Danysz = experiment: M.I.C. in vitro, nutrient agar dilution; details: Salmonella enterica, 18 h; Table 2; S. enteritidis Danysz (Gram negative); read-out: M.I.C.
Experimental: as §1, §2, §3, §4

B. subtilis = experiment: M.I.C. in vitro, nutrient agar dilution; details: Bacillus subtilis, 18 h; Table 2; B. subtilis (Gram positive); read-out: M.I.C.
Experimental: as §1, §2, §3, §4

Esch. coli 54.127 O.M.S. = experiment: M.I.C. in vitro, nutrient agar dilution; details: Escherichia coli, 18 h; Table 2; Esch. coli 54.127 O.M.S. (Gram negative); read-out: M.I.C.
Experimental: as §1, §2, §3, §4

Row | Structure (SMILES) | MIC (Salm. typhi 0901) [µg/mL] | MIC (Staph. 9.144) [µg/mL] | MIC (Serratia) [µg/mL] | MIC (Klebs. pneum. 10.031) [µg/mL] | MIC (Pr. vulgaris 12-53) [µg/mL] | MIC (Strepto D.M. 19) [µg/mL] | MIC (Providentia 0223) [µg/mL] | MIC (Strepto A 561) [µg/mL] | MIC (Staph. 209 P) [µg/mL] | MIC (Ps. aeruginosa A.22) [µg/mL] | MIC (Ps. aeruginosa 72.345) [µg/mL] | MIC (S. oranienburg 1066) [µg/mL] | MIC (Arizona 6.211) [µg/mL] | MIC (Pr. mirabilis Nig) [µg/mL] | MIC (Esch. coli 111 B4) [µg/mL] | MIC (Esch. coli 95 I.S.M.) [µg/mL] | MIC (Sh. sonnei I.P.S.) [µg/mL] | MIC (Bord. bronchis. 4.617) [µg/mL] | MIC (Pr. morganii A.236) [µg/mL] | MIC (S. enteritidis Danysz) [µg/mL] | also measured
1 | CCn1cc(C(=O)O)c(=O)c2ccc(N3CCN(C)CC3)cc21 [Example T1, 1-ethyl-7-(4-methylpiperazinyl)-4-oxo-1,4-dihydro-quinoline-3-carboxylic acid, reference compound] | 3.1 (≈ 9.83 µM) | 6.2 (≈ 19.7 µM) | 12.5 (≈ 39.6 µM) | 0.8 (≈ 2.54 µM) | 3.1 (≈ 9.83 µM) | 50 (≈ 159 µM) | 100 (≈ 317 µM) | 50 (≈ 159 µM) | 3.1 (≈ 9.83 µM) | 12.5 (≈ 39.6 µM) | 12.5 (≈ 39.6 µM) | > 100 | 1.6 (≈ 5.07 µM) | 3.1 (≈ 9.83 µM) | 1.6 (≈ 5.07 µM) | 0.8 (≈ 2.54 µM) | 1.6 (≈ 5.07 µM) | 25 (≈ 79.3 µM) | 0.8 (≈ 2.54 µM) | 3.1 (≈ 9.83 µM) | MIC (B. subtilis): 1.6 µg/mL (≈ 5.07 µM); MIC (Esch. coli 54.127 O.M.S.): 1.6 µg/mL (≈ 5.07 µM)
2 | CCn1cc(C(=O)O)c(=O)c2ccc(N3CCN(CCO)CC3)cc21 [Example T4, reference compound] | 25 (≈ 72.4 µM) | 3.1 (≈ 8.98 µM) | > 100 | 3.1 (≈ 8.98 µM) | 25 (≈ 72.4 µM) | 100 (≈ 290 µM) | > 100 | > 100 | 6.2 (≈ 18 µM) | 100 (≈ 290 µM) | 100 (≈ 290 µM) | > 100 | 12.5 (≈ 36.2 µM) | 50 (≈ 145 µM) | 6.2 (≈ 18 µM) | 6.2 (≈ 18 µM) | 6.2 (≈ 18 µM) | 100 (≈ 290 µM) | 3.1 (≈ 8.98 µM) | 12.5 (≈ 36.2 µM) | MIC (B. subtilis): 3.1 µg/mL (≈ 8.98 µM); MIC (Esch. coli 54.127 O.M.S.): 6.2 µg/mL (≈ 18 µM)
